According to publication PMC7886681, “Characterization and Validation of Arg286 Residue of IL-1RAcP as a Potential Drug Target for Osteoarthritis” (Frontiers in Chemistry, 2021):
Bridges are numbered along the chain shown (N, C = ends). Where no end group is shown, it is not given here.

Columns and labels:
[1] = tested on: IL-1β signaling in HEK-Blue IL-1β cells; test: HEK-Blue IL-1β reporter cell assay (SEAP); type: cell-based, human; details: 2 μM peptide; IL-1β 2.5 ng/ml; triplicate
Protocol: HEK 293 reporter cells for human IL-1β (HEK-Blue IL-1β cells, Invivogen) were used to test the ability of peptide variants to inhibit IL-1β signaling pathway. HEK-Blue IL-1β cells were used according to manufacturer instructions. HEK-Blue IL-1β cells were cultured in Dulbecco's modified Eagle's medium (DMEM, Gibco) additioned with 10% heat inactivated fetal bovine serum (ATCC), 4.5 g/l glucose (Sigma), and 2 mM L-glutamine (ATCC) at 37°C, 5% CO2, in a humidified environment. HEK-Blue IL-1β cells (5,000 cells/well) were plated into 96-well tissue culture plates. The following day, cells were pre-treated for 1 h with peptide variants (Peptides 1.0, 1.1, 1.2, 2.0, 3.0, 4.0, and 4.3) or soluble IL-1RAcP (2 ng/μL) as a positive control. The cells were then stimulated with IL-1β at 2.5 ng/ml for 30 min. Following stimulation, the medium was changed and the inhibitors were added again to the plate. The cells were then left to incubate overnight. The next day, 160 μl of QUANTI-Blue (Invivogen) were added to each well. The plate was incubated at 37°C for 1 h. Then, the plate was placed in a spectrophotometer to detect the levels of secreted embryonic alkaline phosphatase (SEAP) in each well at a wavelength of 625–655 nm. Each peptide was tested in triplicate and an ANOVA test with Dunnett's test for multiple comparisons was performed to determine significance of inhibition.

[2] = molecular target: IL-1β:IL-1RI:IL-1RAcP complex (Homo sapiens, UniProt P01584+P14778); test: Receptor complex immunoprecipitation pull-down with IL-1β western blot; type: biochemical; details: for IL-1β pull down inhibition: concentration not given
Chain of IL-1β:IL-1RI:IL-1RAcP complex (P01584 117-269): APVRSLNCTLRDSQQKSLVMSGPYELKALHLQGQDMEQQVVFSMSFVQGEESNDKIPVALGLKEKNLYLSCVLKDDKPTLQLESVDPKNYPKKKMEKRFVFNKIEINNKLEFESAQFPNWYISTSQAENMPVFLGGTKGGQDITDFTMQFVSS
Chain of IL-1β:IL-1RI:IL-1RAcP complex (P14778 18-332 limits assumed): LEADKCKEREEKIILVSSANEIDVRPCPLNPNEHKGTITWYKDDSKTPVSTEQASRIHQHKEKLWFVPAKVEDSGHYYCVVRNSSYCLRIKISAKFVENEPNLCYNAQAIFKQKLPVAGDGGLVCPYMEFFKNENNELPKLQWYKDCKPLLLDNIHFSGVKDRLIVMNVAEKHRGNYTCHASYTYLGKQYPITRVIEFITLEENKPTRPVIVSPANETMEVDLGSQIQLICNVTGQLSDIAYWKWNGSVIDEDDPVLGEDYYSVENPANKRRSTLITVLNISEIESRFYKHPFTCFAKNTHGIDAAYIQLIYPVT
Protocol: IL-1β (20 ng μl^−1), IL-1RI (100 ng μl^−1), and 6xHis-tagged IL-1RAcP (40 ng μl^−1) were incubated with parent Peptide 1.0, a peptide variant, or the antibody inhibitor at various concentrations in 50 μl of PBS for 1 h at room temperature under rotation. In parallel, IL-1β, IL-1RI, and 6xHis-tagged IL-1RAcP were allowed to interact without parent Peptide 1.0 as a positive control. IL-1β by itself acted as a negative control. BcMag Protein G Magnetic Beads (50 μl, Bioclone) were washed 3 times with washing buffer (57.7 mM Na2HPO4, 42.3 mM NaH2PO4, pH 7.0), incubated with anti-6xHis mouse monoclonal antibody (1 μg, Abcam) for 30 min under rotation, isolated with neodymium magnets, and washed three times with washing buffer (57.7 mM Na2HPO4, 42.3 mM NaH2PO4, pH 7.0). Protein complex mixtures were incubated with the anti-His antibody decorated magnetic beads for 1 h at room temperature under rotation. Magnetic beads were separated (neodymium magnets) and washed 3X with buffer (57.7 mM Na2HPO4, 42.3 mM NaH2PO4, pH 7.0). Immunoprecipitated proteins were eluted with 20 μl of 4X sample buffer (10 min, 70°C) and analyzed by western blotting (anti-IL1β antibody).
SDS-PAGE was used to separate the immune-precipitated proteins in a 4–20% Tris-Glycine gel for 90 min at 125 V. The proteins were transferred for 2 h at 25 V onto an Immobilion PVDF membrane. After blocking the membrane using PBS containing 0.2% (w/v) I-Block and 0.1% Tween 20 for 1 h at room temperature (or overnight at 4°C), the membrane was subjected to a 2-h incubation with an anti-IL1β antibody (1:1,000, Cell Signaling Technology) while undergoing continuous agitation. The membrane was washed with PBS containing 0.1% Tween 20, then subjected to a 1-h incubation with the secondary anti-mouse horseradish-peroxidase-conjugated anti-IgG antibody (1:10,000, Invitrogen). The western blot was developed using a chemiluminescence system (SuperSignal^TM West Dura Extended Duration Substrate) and imaged using a Kodak 4000MM system.
Statistical tests (One-way ANOVA with Dunnett's Multiple Comparison adjustment) and non-linear regression of the dose response pull down peptide inhibition data were performed using GraphPad Prism.

[3] = molecular target: T1, interleukin 1β (IL-1β) (UniProt P01584 117-269); test: pull-down; IL-1β (20 ng/µl), IL-1RI (100 ng/µl) and 6xHis-tagged IL-1RAcP (40 ng/µl) incubated with or without peptide at various concentrations in 50 µl PBS, 1 h, room temperature; captured on anti-6xHis antibody on Protein G magnetic beads; washed in phosphate buffer pH 7.0; western blot with anti-IL-1β; band intensity relative to the control without peptide; details: both partners purified
T1 construct: interleukin 1β used at 20 ng/µl in the pull-down; Species is surmised as human: PDB 4DEP was used for modelling, the reporter cells are for human IL-1β and the MS search used the human database

[4] = molecular target: T1, interleukin 1β (IL-1β); test: cell-based or functional assay

T C N Q SISHS R T QNQ TRTQ C LS (disulfide) [Peptide 4.2, cyclized Gln/Asn variant, cycle length 18]
difference in inhibition of IL-1β signaling versus Peptide 1.0 [1]: 42% | IL-1β concentration in the pulled down fraction, % of positive control ([2]; 0.04 nM peptide): 102% | IL-1β concentration in the pulled down fraction, % of positive control ([2]; 40 nM peptide): 36% | IL-1β pull down inhibition [2]: higher than 45%

T C NESISHS R TEDETRTQ C LS (disulfide) [Peptide 1.2, cyclized Peptide 1.0 variant, cycle length 18]
difference in inhibition of IL-1β signaling versus Peptide 1.0 [1]: 28% | IL-1β concentration in the pulled down fraction, % of positive control ([2]; 0.4 nM peptide): 60% | IL-1β concentration in the pulled down fraction, % of positive control ([2]; 4 nM peptide): 51% | IL-1β concentration in the pulled down fraction, % of positive control ([2]; 40 nM peptide): 35% | IL-1β pull down inhibition [2]: higher than 45%

TINESISHS R TEDETRTQILS [Peptide 1.0, synthetic peptide mimicking IL-1RAcP Arg286 hot spot region]
IL-1β pull down ([2]; 12.5 nM peptide, relative to positive control without inhibitor): 60% | reduction of IL-1β pull down ([2]; 124 and 62 nM peptide): 26–30% | IL-1β pull down inhibition [2]: higher than 45%

TINESISHS A TEDETRTQILS [Peptide 2.0, negative control peptide with alanine instead of arginine in position 286]
IL-1β in the pulled-down fraction, % of positive control ([2]; 25 nM peptide): 99%

TINESISHSRTEDETRMQILS [Peptide 3.0]
IL-1β concentration in the pulled down fraction, % of positive control ([2]; 0.04 nM peptide): 112% | IL-1β pull down reduced to ([2]; 40 and 4 nM peptide, relative to positive control without inhibitor): 8–9% | IC50 ([2]; His-tagged IL-1RAcP pull-down, IL-1β western blot band intensity relative to positive control, non-linear regression of dose response, read-out: IC50, inhibition of IL-1β complex formation): 0.304 nM | IL-1β pull down inhibition [2]: higher than 45%

B1: Peptide 1.0 (peptide)
peptide: TINESISHSRTEDETRTQILS
notes: Linear, 21 residues; also called parent Peptide 1.0; lead peptide; source: synthetic peptide (Peptide 2.0, Inc; Fmoc/tBu solid phase, RP-HPLC to 98% purity)
% IL-1β pull down with IL-1RAcP relative to no peptide (peptide at 12.5 nM) [3]: 60%

B2: Peptide 1.2 (peptide)
peptide: TCNESISHSRTEDETRTQCLS
modifications: disulfide 2-19
notes: IL-1RAcP stretch around Arg286 with two isoleucines replaced by cysteine; source: synthetic peptide (Peptide 2.0, Inc; Fmoc/tBu solid phase, RP-HPLC to 98% purity)
HEK-Blue IL-1β reporter cells (SEAP), inhibition of IL-1β signalling at 2 µM peptide, difference from Peptide 1.0; blocks formation of the IL-1β complex with IL-1RI and IL-1RAcP [4]: 28% | % IL-1β pull down with IL-1RAcP relative to no peptide (peptide at 0.4 nM) [3]: 60% | % IL-1β pull down with IL-1RAcP relative to no peptide (peptide at 4 nM) [3]: 51% | % IL-1β pull down with IL-1RAcP relative to no peptide (peptide at 40 nM) [3]: 35%

B3: Peptide 3.0 (peptide)
peptide: TINESISHSRTEDETRMQILS
notes: IL-1RAcP stretch around Arg286 with methionine at 293; source: synthetic peptide (Peptide 2.0, Inc; Fmoc/tBu solid phase, RP-HPLC to 98% purity)
HEK-Blue IL-1β reporter cells (SEAP), inhibition of IL-1β signalling at 2 µM peptide, difference from Peptide 1.0; blocks formation of the IL-1β complex with IL-1RI and IL-1RAcP [4]: 54% | IC50 [3]: 0.303 nM

B4: Peptide 4.2 (peptide)
peptide: TCNQSISHSRTQNQTRTQCLS
modifications: disulfide 2-19
notes: IL-1RAcP stretch around Arg286 with two cysteines for isoleucines and Gln/Asn for Glu/Asp; source: synthetic peptide (Biomatik; Fmoc/tBu solid phase, RP-HPLC to 98% purity)
HEK-Blue IL-1β reporter cells (SEAP), inhibition of IL-1β signalling at 2 µM peptide, difference from Peptide 1.0; blocks formation of the IL-1β complex with IL-1RI and IL-1RAcP [4]: 42% | % IL-1β pull down with IL-1RAcP relative to no peptide (peptide at 40 nM) [3]: 36%
